Test results published in USRE48267E1, “Variants of C-type natriuretic peptide” (priority 2009, dated 2020).
Marks after values point to notes of the source that are not given here. Where a SMILES comes first, the peptide text is derived from it. Bridges are numbered along the chain shown (N, C = ends). The star is where a group is joined. CH3O(CH2CH2O)11CH2CH2CO = COCCOCCOCCOCCOCCOCCOCCOCCOCCOCCOCCOCCC(=O)*

Assays:
Recombinant human NEP = Recombinant human NEP (Homo sapiens, UniProt P08473); experiment: in vitro NEP cleavage assay (disappearance of non-cleaved CNP variant)
Sequence of Recombinant human NEP (P08473 whole entry): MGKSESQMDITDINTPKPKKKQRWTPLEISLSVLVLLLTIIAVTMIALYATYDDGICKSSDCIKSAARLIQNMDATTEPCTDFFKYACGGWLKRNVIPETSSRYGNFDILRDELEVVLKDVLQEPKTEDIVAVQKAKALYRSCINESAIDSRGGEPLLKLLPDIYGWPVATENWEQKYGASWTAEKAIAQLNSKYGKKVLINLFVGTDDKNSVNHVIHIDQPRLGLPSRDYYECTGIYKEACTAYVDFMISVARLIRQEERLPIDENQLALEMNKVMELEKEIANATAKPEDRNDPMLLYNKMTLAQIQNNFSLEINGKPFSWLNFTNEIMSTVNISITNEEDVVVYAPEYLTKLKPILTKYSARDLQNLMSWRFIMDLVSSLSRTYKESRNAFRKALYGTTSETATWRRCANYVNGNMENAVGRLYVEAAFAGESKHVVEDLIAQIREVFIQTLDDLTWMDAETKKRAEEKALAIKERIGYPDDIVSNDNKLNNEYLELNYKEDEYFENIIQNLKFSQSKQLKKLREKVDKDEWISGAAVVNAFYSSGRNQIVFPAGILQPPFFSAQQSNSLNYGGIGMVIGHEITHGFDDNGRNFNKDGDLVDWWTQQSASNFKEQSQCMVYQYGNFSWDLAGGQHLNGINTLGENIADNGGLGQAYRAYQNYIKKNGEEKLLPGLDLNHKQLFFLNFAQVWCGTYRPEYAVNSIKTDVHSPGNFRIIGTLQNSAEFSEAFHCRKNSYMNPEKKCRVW
Summary of the method: (§1)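 Recombinant human NEP (1 ug/mL final) incubated with 100 uM CNP variant in 0.1 M Tris, pH 7, at 37° C for various times, then quenched with EDTA (10 mM final) and heat. Samples reduced and analysed by HPLC and mass spectrometry. Half-life derived from loss of intact variant over time.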

wild-type FVB mice = experiment: efficacy of CNP variants on bone growth in wild-type mice; assay type: in vivo, mouse; conditions: 200 nmol/kg s.c. once daily for 5 weeks
Procedure: The in vivo effects of CNP variants on bone growth were assessed in wild-type mice. Three week old FVB wild-type male mice received daily subcutaneous (s.c.) injection of either vehicle, G-CNP37 (200 nmol/kg) or […]”) (SEQ ID NO: 36) (200 nmol/kg) for 5 weeks. Body weight was measured at least once weekly. Tail length was measured at least once weekly using digital caliper readings, and body length (naso-anal length), bone length (tibia, femur, ulna and humerus), skull length (anterior to posterior cranial segment) and lumbar vertebrae 5 (LV5) length were measured after 5 weeks of treatment using a caliper. X-rays were taken at baseline and after 5 weeks of treatment. […] In another study, various dosing regimens of Pro-Gly-CNP37 were administered for nine weeks followed by one week of recovery. Wild-type FVB mice were dosed s.c. with: • (1) vehicle daily for nine weeks, followed by one week of recovery; • (2) 20 nmol/kg Pro -Gly-CNP37 daily for one week, followed by three doses per week for eight weeks and one week of recovery; • (3) 20 nmol/kg Pro-Gly-CNP37 on alternating weeks; or • (4) 5 nmol/kg Pro-Gly-CNP37 daily for nine weeks followed by one week of recovery.

[1] = IgG assay (immunogenicity) in mice
Procedure: An IgG assay was performed to assess whether an IgG immune response was triggered by 5 week exposure of achondroplastic FGFR3^ach mice to CNP22, CNP37 or PEO24-GANRR-CNP22(K4R) (“CNP27-PEO24”) (SEQ ID NO: 36). IgG is the most predominant immunoglobulin in mouse and human serum and is produced as part of the secondary immune response to an antigen. The IgG response to administration of the CNP peptides was determined as follows. 96-well plates were coated with 100 ng/mL CNP22, CNP37 or PEO24-GANRR-CNP22(K4R) (SEQ ID NO: 36) in BupH PBS buffer (Pierce/Thermo, Cat. No. 28372, Rockford, Ill.). After overnight incubation, plates were blocked with Casein-PBS blocking buffer (Pierce/Thermo, Cat. No. 37528) for two hours at room temperature with shaking at 300 rpm. After washing with wash buffer (1×PBS with 0.05% Tween), diluted serum samples from a terminal bleed (diluted 1:25) were added to the plate. Positive and negative controls were also loaded onto the plate. Positive control was 1:25 diluted serum (pooled from 6 individual FVB mice) with anti-CNP22 antibody added (Bachem rabbit anti-CNP22 IgG, Cat. No. T-4222) at 1:1000 dilution. Negative control was the diluted pooled serum. After two hours of incubation, the plates were washed and secondary antibody diluted in blocking buffer was added to the wells. For the mouse serum samples, anti-mouse IgG Fcγ (peroxidase-conjugated affinipure goat anti-mouse IgG, Fcγ fragment, Cat. No. 115-035-071, Jackson Immunoresearch, West Grove, Pa.) was added at a 1:10,000 dilution. For the positive and negative controls, anti-rabbit IgG-HRP (Santa Cruz Biotechnology, Cat. No. SC-2004, Santa Cruz, Calif.) was added to blocking buffer. After two hours of incubation at room temperature with shaking at 300 rpm, plates were washed with wash buffer. 100 uL of TMB (One-step TMB, Pierce/Thermo, Cat. No. 34022) was added to all wells. Plates were incubated at room temperature for 15 minutes with shaking at 300 rpm. Colorimetric reactions were stopped by the addition of 100 uL of 2 N H2SO4. Plates were read at 450 nm (Spectramax, Molecular Devices, Sunnyvale, Calif.) and data was analyzed using SoftMax Pro software (Molecular Devices).
The immunogenic response of wild-type mice administered G-CNP37, PEO12-GANRR-CNP22(K4R) (SEQ ID NO: 36) or Pro-Gly-CNP37, as measured by an increase in serum IgG level, was also assessed by examining terminal bleed serum samples as described above.

[2] = target: neutral endopeptidase (NEP) (Homo sapiens, UniProt P08473); experiment: in vitro; conditions: human, pH 7
Sequence of neutral endopeptidase (NEP) (P08473 whole entry): as above
Summary of the method: as §1

[3] = target: NPR-B (natriuretic peptide receptor B), murine, expressed endogenously on NIH3T3 cells (murine) (UniProt Q6VVW5); experiment: cell-based or functional assay
Sequence of NPR-B (natriuretic peptide receptor B), murine, expressed endogenously on NIH3T3 cells (murine) (Q6VVW5 17-1047): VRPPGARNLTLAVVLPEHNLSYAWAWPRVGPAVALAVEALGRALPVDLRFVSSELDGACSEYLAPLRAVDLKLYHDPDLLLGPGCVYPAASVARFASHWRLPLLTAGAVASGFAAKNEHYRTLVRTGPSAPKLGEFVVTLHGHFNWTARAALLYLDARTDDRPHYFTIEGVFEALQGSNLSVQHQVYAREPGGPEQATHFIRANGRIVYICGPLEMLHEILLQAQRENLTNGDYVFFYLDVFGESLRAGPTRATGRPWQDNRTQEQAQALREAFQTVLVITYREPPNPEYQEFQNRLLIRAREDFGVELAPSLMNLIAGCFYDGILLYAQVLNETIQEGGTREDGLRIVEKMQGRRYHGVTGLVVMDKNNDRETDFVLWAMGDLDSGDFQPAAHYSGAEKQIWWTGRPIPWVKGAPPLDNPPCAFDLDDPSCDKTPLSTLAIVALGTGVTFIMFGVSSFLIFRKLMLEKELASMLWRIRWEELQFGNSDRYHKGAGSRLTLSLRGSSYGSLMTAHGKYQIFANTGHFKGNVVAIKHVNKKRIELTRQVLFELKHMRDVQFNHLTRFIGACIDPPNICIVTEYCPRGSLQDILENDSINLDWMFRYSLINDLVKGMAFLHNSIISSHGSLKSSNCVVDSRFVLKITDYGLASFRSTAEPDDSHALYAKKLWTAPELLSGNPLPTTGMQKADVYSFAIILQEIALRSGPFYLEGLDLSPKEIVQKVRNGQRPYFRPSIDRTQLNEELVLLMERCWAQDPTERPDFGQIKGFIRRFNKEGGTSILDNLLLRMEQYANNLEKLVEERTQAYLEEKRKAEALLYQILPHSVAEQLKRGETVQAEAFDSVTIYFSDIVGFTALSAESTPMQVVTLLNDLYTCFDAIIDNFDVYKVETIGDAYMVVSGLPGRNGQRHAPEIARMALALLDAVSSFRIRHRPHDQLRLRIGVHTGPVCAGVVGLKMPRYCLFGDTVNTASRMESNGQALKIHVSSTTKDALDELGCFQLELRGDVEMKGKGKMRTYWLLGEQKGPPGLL

[4] = normal human; cited from earlier work
NPR-C = NPR-C (Homo sapiens, UniProt P17342); conditions: read-out: affinity to NPR-C; cited from earlier work
Sequence of NPR-C (P17342 27-541, species assumed): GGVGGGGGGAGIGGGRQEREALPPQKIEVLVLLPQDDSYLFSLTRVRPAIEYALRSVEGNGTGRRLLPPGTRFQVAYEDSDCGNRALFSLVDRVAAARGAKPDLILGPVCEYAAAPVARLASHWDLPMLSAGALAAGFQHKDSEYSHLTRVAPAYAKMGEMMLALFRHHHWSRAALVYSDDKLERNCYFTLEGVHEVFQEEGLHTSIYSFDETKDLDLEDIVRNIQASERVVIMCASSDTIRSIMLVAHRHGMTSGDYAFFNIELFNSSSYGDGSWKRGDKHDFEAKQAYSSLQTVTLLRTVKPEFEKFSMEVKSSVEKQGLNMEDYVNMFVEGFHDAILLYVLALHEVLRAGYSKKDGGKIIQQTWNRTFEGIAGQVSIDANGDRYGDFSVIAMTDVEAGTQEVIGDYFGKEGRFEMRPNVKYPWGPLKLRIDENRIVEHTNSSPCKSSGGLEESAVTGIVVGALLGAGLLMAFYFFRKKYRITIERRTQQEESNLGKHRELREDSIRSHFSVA

[5] = pharmacokinetics in rats (plasma CNP immunoreactivity by RIA); assay type: in vivo, rat
Procedure: Recombinant wild-type CNP22, CNP37 and PEO24-GANRR-CNP22 […]) (SEQ ID NO: 36) were evaluated. […] Standard and QC samples were prepared. […] Plasma CNP immunoreactivity was employed for pharmacokinetics (PK) analysis. PK analysis was performed using WINNONLIN® Professional (Pharsight Corporation).

NPR-B = NPR-B (Homo sapiens, UniProt P20594); conditions: read-out: affinity to NPR-B; cited from earlier work
Sequence of NPR-B (P20594 23-1047, species assumed): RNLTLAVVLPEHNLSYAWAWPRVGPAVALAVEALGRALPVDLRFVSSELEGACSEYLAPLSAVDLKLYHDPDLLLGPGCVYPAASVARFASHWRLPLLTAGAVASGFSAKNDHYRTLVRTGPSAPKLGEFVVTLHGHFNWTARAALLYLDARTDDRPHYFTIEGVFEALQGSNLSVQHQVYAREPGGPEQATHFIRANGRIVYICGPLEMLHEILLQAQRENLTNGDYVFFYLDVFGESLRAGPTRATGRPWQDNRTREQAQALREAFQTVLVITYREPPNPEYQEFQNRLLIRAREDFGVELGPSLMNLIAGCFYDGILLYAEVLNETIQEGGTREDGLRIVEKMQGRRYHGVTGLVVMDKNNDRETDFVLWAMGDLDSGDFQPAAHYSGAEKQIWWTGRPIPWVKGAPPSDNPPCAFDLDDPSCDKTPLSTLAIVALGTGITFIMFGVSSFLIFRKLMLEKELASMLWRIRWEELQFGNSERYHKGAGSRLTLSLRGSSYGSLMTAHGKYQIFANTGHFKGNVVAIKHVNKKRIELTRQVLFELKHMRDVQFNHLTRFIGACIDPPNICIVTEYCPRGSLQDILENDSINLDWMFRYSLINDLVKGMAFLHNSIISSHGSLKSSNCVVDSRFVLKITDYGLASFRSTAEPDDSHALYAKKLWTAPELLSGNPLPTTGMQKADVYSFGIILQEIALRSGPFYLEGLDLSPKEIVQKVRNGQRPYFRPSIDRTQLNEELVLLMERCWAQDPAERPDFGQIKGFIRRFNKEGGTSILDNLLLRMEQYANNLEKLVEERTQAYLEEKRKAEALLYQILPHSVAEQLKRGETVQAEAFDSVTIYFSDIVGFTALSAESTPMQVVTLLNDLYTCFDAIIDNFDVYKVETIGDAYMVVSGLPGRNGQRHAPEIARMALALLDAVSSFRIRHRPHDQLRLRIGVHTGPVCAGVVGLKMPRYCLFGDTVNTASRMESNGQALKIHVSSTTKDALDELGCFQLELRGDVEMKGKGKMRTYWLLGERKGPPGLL

## CC[C@H](C)[C@@H]1NC(=O)[C@H](CCCNC(=N)N)NC(=O)[C@H](CC(=O)O)NC(=O)[C@H](CC(C)C)NC(=O)[C@H](CCCCN)NC(=O)[C@H](CC(C)C)NC(=O)CNC(=O)[C@H](Cc2ccccc2)NC(=O)[C@@H](NC(=O)CNC(=O)[C@H](CCCNC(=N)N)NC(=O)[C@H](CO)NC(=O)[C@H](CC(C)C)NC(=O)CNC(=O)[C@H](CCCNC(=N)N)NC(=O)[C@H](CCCNC(=N)N)NC(=O)[C@H](CC(N)=O)NC(=O)[C@H](C)NC(=O)CNC(=O)CCOCCOCCOCCOCCOCCOCCOCCOCCOCCOCCOCCOC)CSSC[C@@H](C(=O)O)NC(=O)CNC(=O)[C@H](CC(C)C)NC(=O)CNC(=O)[C@H](CO)NC(=O)[C@H](CCSC)NC(=O)[C@H](CO)NC(=O)CNC1=O [PEO12-GANRR-CNP22(K4R)] ({CH3O(CH2CH2O)11CH2CH2CO}-GANRRGLSRGCFGLKLDRIGSMSGLGC-OH; disulfide 11-27; C-terminus assumed)
Recombinant human NEP
  resistance to NEP cleavage (in words): much greater stability to NEP degradation compared to wtCNP22
wild-type FVB mice
  Anterior to Posterior (Skull) length, relative to vehicle = 100%: 101%
  Femur length, relative to vehicle = 100%: 102%*
  Humerus length, relative to vehicle = 100%: 102%*
  LV5 length, relative to vehicle = 100%: 103%
  Naso-Anal (body) length, relative to vehicle = 100%: 104%**
  Tail length, relative to vehicle = 100%: 101%
  Tibia length, relative to vehicle = 100%: 100%
  Ulna length, relative to vehicle = 100%: 96%*
[1]; mouse, in vivo
  IgG immune response: None of the wild-type mice

## CC[C@H](C)[C@@H]1NC(=O)[C@H](CCCNC(=N)N)NC(=O)[C@H](CC(=O)O)NC(=O)[C@H](CC(C)C)NC(=O)[C@H](CCCCN)NC(=O)[C@H](CC(C)C)NC(=O)CNC(=O)[C@H](Cc2ccccc2)NC(=O)[C@@H](NC(=O)CNC(=O)[C@H](CCCCN)NC(=O)[C@H](CO)NC(=O)[C@H](CC(C)C)NC(=O)CNC(=O)[C@H](CCCCN)NC(=O)[C@H](CCCCN)NC(=O)[C@H](CC(N)=O)NC(=O)[C@H](C)NC(=O)CNC(=O)[C@H](CCCCN)NC(=O)[C@H](Cc2ccc(O)cc2)NC(=O)[C@H](CCCCN)NC(=O)[C@H](CCCNC(=N)N)NC(=O)[C@H](C)NC(=O)[C@H](CC(N)=O)NC(=O)[C@@H]2CCCN2C(=O)[C@H](Cc2c[nH]cn2)NC(=O)[C@H](CCC(=O)O)NC(=O)[C@H](CCC(N)=O)NC(=O)CN)CSSC[C@@H](C(=O)O)NC(=O)CNC(=O)[C@H](CC(C)C)NC(=O)CNC(=O)[C@H](CO)NC(=O)[C@H](CCSC)NC(=O)[C@H](CO)NC(=O)CNC1=O [Analog DB]
[2]
  half-life at 100 uM: > 160 min
Recombinant human NEP
  resistance to NEP cleavage (in words): completely resistant to NEP cleavage
[1]; mouse, in vivo
  IgG immune response: one out of six

## ANP (atrial natriuretic peptide) (from UniProt P01160 124-151)
[3]
  cGMP response rel. to 1 uM CNP22; 10 nM peptide, NIH3T3 cells (rel. to 1 uM CNP22 (100)): 10
  cGMP response rel. to 1 uM CNP22; 1 uM peptide, NIH3T3 cells (rel. to 1 uM CNP22 (100)): 23

## CC[C@H](C)[C@@H]1NC(=O)[C@H](CCCNC(=N)N)NC(=O)[C@H](CC(=O)O)NC(=O)[C@H](CC(C)C)NC(=O)[C@H](CCCCN)NC(=O)[C@H](CC(C)C)NC(=O)CNC(=O)[C@H](Cc2ccccc2)NC(=O)[C@@H](NC(=O)CNC(=O)[C@H](CCCCN)NC(=O)[C@H](CO)NC(=O)[C@H](CC(C)C)NC(=O)CN)CSSC[C@@H](C(=O)O)NC(=O)CNC(=O)[C@H](CC(C)C)NC(=O)CNC(=O)[C@H](CO)NC(=O)[C@H](CCSC)NC(=O)[C@H](CO)NC(=O)CNC1=O [CNP22, reference compound]
[4]
  in vivo (plasma) half-life: 2.6 min
Recombinant human NEP; 100 uM peptide, 1 ug/mL NEP, 0.1 M Tris pH 7, 37° C., adjusted t1/2, CNP22 normalized to 80 min
  NEP Cleavage (t1/2, min): 80 min
[1]; FGFR3^ach mice, 5 week exposure, 200 nmol/kg
  IgG immune response: no positive IgG immune response in any of the mice
NPR-C
  Kd: 0.011 to 0.14 nM
[5]; i.v. 20 nmol/kg
  area under the curve, AUC (pmol·min/mL): 320 (±54) pmol·min/mL
[5]; s.c. 50 nmol/kg
  bioavailability: 19%
NPR-B
  Kd: 0.007 to 0.03 nM
